Activity calls are given as the source filed them. Rule as the data show it: actives have a measured Kd and inactives only a lower limit.
Assays:
[1] = target: Mitotic checkpoint serine/threonine-protein kinase BUB1 (Homo sapiens, UniProt O43683)
[2] = target: T1, Serine/threonine-protein kinase LATS1 (Homo sapiens, UniProt O95835)
T1 sequence (O95835 whole entry): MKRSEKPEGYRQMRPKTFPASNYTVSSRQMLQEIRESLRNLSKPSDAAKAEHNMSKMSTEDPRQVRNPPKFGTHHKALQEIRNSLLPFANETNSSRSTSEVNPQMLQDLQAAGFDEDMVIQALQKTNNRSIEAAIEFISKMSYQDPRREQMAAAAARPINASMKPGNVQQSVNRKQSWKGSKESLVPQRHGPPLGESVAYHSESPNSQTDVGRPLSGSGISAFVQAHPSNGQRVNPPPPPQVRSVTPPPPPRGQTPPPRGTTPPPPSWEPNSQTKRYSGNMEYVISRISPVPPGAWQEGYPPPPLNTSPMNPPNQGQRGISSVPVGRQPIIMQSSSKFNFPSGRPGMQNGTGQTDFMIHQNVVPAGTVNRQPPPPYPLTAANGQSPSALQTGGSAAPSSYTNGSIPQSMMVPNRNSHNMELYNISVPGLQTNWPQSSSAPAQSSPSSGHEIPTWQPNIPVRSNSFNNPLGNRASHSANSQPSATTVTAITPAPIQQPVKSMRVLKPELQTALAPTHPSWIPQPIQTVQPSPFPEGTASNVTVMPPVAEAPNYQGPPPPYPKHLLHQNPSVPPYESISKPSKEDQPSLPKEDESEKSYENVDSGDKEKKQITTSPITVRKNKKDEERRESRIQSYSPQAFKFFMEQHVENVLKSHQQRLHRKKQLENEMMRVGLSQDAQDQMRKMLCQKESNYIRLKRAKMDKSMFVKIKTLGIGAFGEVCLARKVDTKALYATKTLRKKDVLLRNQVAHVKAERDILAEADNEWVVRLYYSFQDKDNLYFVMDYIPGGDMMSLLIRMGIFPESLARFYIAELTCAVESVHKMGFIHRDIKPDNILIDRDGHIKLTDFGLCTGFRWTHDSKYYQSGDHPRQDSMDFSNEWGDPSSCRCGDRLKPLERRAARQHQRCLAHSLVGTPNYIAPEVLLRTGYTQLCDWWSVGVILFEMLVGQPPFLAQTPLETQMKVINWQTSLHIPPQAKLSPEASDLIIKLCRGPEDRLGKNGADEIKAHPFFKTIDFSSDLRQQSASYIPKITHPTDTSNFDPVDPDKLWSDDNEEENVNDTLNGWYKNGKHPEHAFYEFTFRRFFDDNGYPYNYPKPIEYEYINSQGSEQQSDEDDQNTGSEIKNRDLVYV

[3] = target: Mitogen-activated protein kinase kinase kinase kinase 4 (Homo sapiens, UniProt O95819)
[4] = target: Hepatocyte growth factor receptor (Homo sapiens, UniProt P08581)
[5] = target: T2, Serine/threonine-protein kinase Nek9 (Homo sapiens, UniProt Q8TD19)
T2 sequence (Q8TD19 whole entry): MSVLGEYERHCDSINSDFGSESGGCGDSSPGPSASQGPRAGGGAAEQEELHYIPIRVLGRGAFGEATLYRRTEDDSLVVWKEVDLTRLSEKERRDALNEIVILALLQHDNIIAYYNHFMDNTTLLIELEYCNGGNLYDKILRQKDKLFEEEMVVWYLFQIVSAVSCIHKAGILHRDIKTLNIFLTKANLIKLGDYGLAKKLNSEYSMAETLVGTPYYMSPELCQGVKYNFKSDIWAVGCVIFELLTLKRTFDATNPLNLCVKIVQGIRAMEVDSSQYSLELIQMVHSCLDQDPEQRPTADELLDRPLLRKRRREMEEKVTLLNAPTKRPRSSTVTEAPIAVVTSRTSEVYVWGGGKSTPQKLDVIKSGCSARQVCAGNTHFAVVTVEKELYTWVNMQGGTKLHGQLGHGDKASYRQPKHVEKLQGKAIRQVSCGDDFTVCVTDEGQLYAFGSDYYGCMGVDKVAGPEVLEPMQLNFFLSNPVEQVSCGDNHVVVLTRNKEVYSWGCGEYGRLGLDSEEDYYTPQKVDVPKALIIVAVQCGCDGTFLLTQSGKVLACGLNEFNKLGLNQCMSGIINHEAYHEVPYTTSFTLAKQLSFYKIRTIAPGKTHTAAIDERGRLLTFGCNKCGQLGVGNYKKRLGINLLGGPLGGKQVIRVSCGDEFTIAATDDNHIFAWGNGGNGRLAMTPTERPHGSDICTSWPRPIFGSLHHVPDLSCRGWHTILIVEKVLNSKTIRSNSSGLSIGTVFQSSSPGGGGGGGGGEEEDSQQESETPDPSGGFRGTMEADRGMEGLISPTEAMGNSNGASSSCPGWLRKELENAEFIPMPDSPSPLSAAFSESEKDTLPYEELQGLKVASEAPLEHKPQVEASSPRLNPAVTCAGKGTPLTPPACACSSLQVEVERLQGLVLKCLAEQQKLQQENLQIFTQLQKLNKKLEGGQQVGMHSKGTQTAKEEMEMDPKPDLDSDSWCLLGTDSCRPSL

[6] = target: Ribosomal protein S6 kinase alpha-6 (Homo sapiens, UniProt Q9UK32)
Also: in the data inactive means no Kd found up to 30 µM.

Sequence of Mitogen-activated protein kinase kinase kinase kinase 4 (O95819 whole entry): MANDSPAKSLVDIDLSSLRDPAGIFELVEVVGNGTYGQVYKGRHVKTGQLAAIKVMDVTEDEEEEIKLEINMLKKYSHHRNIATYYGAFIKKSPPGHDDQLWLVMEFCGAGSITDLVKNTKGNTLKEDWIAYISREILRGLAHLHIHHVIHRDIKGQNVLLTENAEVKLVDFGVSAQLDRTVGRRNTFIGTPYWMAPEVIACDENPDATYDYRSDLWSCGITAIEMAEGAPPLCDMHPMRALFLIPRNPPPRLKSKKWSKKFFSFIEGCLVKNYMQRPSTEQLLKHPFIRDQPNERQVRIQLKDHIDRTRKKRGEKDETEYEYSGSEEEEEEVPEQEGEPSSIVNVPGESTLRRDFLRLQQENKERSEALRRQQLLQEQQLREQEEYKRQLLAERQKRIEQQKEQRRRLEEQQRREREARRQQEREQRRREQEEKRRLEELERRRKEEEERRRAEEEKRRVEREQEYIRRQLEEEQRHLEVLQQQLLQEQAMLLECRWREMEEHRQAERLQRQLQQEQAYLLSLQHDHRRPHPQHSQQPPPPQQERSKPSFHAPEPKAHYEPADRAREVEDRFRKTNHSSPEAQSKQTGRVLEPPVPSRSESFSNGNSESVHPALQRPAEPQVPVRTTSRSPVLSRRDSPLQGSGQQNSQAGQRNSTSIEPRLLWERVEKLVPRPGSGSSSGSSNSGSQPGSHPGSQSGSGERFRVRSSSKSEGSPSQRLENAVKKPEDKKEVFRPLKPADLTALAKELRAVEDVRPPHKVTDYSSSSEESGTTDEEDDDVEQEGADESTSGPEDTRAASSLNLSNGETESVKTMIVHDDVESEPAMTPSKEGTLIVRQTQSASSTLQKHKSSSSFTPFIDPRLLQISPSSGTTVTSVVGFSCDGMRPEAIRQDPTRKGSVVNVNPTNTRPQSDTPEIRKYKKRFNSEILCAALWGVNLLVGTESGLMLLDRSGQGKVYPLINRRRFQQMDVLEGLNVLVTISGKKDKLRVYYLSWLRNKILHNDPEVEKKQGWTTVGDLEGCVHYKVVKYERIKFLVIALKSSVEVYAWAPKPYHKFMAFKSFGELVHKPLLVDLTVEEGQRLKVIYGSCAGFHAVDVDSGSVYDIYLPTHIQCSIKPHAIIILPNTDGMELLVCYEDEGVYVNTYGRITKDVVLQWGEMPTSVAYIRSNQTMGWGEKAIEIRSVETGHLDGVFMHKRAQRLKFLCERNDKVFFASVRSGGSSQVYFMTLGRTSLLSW
Sequence of Hepatocyte growth factor receptor (P08581 whole entry): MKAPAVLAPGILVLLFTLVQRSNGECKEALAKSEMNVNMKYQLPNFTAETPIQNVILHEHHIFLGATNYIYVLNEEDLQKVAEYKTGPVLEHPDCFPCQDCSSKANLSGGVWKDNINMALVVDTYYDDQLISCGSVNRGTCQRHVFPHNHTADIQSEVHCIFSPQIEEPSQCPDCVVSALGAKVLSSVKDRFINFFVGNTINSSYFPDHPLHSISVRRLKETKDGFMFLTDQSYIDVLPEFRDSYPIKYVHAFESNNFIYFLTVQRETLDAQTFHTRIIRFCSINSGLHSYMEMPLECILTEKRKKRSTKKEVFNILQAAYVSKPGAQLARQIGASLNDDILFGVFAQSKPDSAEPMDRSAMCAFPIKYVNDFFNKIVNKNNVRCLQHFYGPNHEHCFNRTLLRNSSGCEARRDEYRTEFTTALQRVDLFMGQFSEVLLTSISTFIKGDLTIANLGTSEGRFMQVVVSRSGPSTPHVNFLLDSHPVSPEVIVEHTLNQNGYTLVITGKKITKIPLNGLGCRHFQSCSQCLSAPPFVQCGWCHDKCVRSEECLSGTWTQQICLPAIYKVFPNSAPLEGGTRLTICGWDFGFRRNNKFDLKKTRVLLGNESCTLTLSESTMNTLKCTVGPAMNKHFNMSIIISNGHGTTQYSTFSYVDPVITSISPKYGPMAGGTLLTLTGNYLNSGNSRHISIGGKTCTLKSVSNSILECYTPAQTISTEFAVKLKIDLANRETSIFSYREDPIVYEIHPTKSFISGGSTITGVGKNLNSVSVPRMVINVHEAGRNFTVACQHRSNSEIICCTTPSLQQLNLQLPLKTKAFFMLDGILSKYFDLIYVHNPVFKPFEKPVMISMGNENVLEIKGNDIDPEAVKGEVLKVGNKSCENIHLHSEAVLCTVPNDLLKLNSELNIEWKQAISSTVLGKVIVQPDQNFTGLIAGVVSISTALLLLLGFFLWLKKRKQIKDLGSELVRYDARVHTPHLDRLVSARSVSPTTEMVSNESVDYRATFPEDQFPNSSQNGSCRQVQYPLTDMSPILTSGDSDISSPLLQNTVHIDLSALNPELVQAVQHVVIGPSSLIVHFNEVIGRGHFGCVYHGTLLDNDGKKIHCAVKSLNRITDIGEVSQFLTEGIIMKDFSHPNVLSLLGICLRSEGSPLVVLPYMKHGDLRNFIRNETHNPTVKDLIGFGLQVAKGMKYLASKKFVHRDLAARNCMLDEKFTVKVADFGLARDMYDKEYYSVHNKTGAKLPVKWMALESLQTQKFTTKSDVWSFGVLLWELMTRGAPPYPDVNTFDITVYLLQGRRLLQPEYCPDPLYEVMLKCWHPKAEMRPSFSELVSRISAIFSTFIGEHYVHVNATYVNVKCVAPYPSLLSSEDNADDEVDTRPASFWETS
Sequence of Ribosomal protein S6 kinase alpha-6 (Q9UK32 whole entry): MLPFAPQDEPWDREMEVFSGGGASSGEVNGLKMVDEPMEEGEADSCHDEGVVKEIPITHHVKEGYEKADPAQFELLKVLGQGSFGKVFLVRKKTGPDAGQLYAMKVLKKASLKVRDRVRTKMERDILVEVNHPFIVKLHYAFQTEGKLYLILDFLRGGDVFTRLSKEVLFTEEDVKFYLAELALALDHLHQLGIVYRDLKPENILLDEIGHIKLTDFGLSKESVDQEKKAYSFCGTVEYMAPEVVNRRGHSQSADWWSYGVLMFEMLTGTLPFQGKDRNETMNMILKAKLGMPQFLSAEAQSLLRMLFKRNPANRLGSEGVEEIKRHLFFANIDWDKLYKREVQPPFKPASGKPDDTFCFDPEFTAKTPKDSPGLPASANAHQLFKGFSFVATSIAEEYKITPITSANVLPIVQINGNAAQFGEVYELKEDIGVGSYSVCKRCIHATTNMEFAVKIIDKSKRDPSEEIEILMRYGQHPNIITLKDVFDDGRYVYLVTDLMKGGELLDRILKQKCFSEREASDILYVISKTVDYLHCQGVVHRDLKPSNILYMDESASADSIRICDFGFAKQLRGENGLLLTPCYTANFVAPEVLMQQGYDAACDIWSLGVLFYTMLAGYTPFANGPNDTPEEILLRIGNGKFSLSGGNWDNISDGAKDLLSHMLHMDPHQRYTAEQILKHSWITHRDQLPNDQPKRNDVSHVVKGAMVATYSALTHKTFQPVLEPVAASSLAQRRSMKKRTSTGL
Sequence of Mitotic checkpoint serine/threonine-protein kinase BUB1 (O43683 whole entry): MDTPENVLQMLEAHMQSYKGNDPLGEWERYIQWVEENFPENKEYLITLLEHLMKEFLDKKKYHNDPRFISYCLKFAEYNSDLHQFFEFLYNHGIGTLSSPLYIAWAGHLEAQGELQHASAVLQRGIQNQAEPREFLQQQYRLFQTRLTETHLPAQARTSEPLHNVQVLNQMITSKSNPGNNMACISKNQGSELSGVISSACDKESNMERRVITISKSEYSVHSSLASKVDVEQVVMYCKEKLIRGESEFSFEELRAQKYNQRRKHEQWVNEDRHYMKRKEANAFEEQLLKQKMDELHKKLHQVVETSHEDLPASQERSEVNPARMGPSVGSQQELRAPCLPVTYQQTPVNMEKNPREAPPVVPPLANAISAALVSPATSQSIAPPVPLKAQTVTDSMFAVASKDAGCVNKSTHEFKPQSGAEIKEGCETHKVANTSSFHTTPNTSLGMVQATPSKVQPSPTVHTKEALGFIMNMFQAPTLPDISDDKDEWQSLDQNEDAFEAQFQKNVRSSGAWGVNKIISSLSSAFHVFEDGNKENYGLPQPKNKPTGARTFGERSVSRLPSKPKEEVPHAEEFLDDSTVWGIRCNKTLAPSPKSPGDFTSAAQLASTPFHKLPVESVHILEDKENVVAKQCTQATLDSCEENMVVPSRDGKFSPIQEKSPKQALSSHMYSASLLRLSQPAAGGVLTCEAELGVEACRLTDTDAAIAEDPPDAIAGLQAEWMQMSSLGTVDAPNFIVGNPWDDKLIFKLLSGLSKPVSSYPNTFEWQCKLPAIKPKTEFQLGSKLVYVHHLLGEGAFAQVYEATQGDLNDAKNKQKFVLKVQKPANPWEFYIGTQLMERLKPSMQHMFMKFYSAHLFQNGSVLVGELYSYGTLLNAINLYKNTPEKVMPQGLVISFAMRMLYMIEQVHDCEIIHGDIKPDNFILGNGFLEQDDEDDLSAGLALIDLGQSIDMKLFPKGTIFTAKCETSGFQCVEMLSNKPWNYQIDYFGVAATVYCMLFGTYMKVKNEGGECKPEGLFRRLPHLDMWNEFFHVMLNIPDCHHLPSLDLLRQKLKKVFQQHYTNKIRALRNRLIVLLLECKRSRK

Kd [1] | Kd [2] | Kd [3] | Kd [4] | Kd [6] | Compound | Kd [5]
> 30 µM (inactive) | 3.59 µM | > 30 µM (inactive) | > 30 µM (inactive) | > 30 µM (inactive) | Cn1ncc(Cl)c1-c1cc(C(=O)N[C@H](CN)Cc2ccc(F)c(F)c2)oc1Cl [UPROSERTIB] | > 30 µM (inactive)
> 30 µM (inactive) | > 30 µM (inactive) | > 30 µM (inactive) | > 30 µM (inactive) | > 30 µM (inactive) | CC(C)c1cc(CNc2nc(Nc3cc(C4CC4)[nH]n3)cc(N3CCN(C)CC3)n2)on1 [XL-228] | > 30 µM (inactive)
> 30 µM (inactive) | > 30 µM (inactive) | 0.946 µM (active) | > 30 µM (inactive) | > 30 µM (inactive) | C[C@@H](N)c1ccc(C(=O)Nc2ccnc3[nH]ccc23)cc1 [Y-39983] | > 30 µM (inactive)

Source: ChEMBL document CHEMBL3991601, “The target landscape of clinical kinase drugs” (Science, 2017)
